Measurements: US20120029187A1, “HALOALKYLSULFONANILIDE DERIVATIVE” (Nissan Chemical Industries, Ltd., priority 2009, published 2012)

Key:
Type in all cases: in vivo
barnyardgrass [1] = test: Test Example 1: herbicidal effects in preemergence treatment under submerged conditions; details: dose 2.52 g/a
In short: (§1)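 Score 0–5 by mortality (5: ≥90%; 0: <5%), read 3 weeks post-application. Paddy-type cups: alluvial soil under 4 cm water, weeds seeded plus transplanted 2.5-leaf rice; diluted EC dosed onto water surface same day as sowing, g/a basis; greenhouse 25 to 30° C.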

bulrush = test: as above; details: dose 2.52 g/a
In short: as §1

ducksalad = test: as above; details: dose 2.52 g/a
In short: as §1

transplanted rice = test: Test Example 1: preemergence treatment under submerged conditions, effect on crop; details: dose 2.52 g/a
In short: as §1

Italian ryegrass [2] = test: Test Example 3: herbicidal effects in soil treatment; details: dose 6.3 g/a
In short: (§2)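 Seeds were sown in sterilized diluvial soil and covered with about 1.5 cm of soil. Compounds, formulated as emulsifiable concentrates and diluted with water, were sprayed evenly over the soil surface at set doses in g/a. Herbicidal effect was scored on a rating scale three weeks later.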

barnyardgrass [3] = test: as above; details: dose 6.3 g/a
In short: as §2

common chickweed [4] = test: as above; details: dose 6.3 g/a
In short: as §2

common lambsquater [5] = test: as above; details: dose 6.3 g/a
In short: as §2

common ragweed [6] = test: as above; details: dose 6.3 g/a
In short: as §2

giant foxtail [7] = test: as above; details: dose 6.3 g/a
In short: as §2

large crabgrass [8] = test: as above; details: dose 6.3 g/a
In short: as §2

posumbu knotweed [9] = test: as above; details: dose 6.3 g/a
In short: as §2

water foxtail [10] = test: as above; details: dose 6.3 g/a
In short: as §2

wild oat [11] = test: as above; details: dose 6.3 g/a
In short: as §2

Italian ryegrass [12] = test: Test Example 4: herbicidal effect in foliage treatment; details: dose 6.3 g/a, three weeks after application
In short: (§3)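 Doses are given in grams per are of applied compound, sprayed as water-diluted emulsifiable concentrate onto foliage of 14-day-old plants grown at 25 to 30° C. Herbicidal activity was assessed visually on a rating scale after three weeks.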

barnyardgrass [13] = test: as above; details: dose 6.3 g/a, three weeks after application
In short: as §3

beadstraw = test: as above; details: dose 6.3 g/a, three weeks after application
In short: as §3

common chickweed [14] = test: as above; details: dose 6.3 g/a, three weeks after application
In short: as §3

common lambsquater [15] = test: as above; details: dose 6.3 g/a, three weeks after application
In short: as §3

common ragweed [16] = test: as above; details: dose 6.3 g/a, three weeks after application
In short: as §3

giant foxtail [17] = test: as above; details: dose 6.3 g/a, three weeks after application
In short: as §3

large crabgrass [18] = test: as above; details: dose 6.3 g/a, three weeks after application
In short: as §3

posumbu knotweed [19] = test: as above; details: dose 6.3 g/a, three weeks after application
In short: as §3

redroot pigweed = test: as above; details: dose 6.3 g/a, three weeks after application
In short: as §3

velvetleaf = test: as above; details: dose 6.3 g/a, three weeks after application
In short: as §3

water foxtail [20] = test: as above; details: dose 6.3 g/a, three weeks after application
In short: as §3

wild oat [21] = test: as above; details: dose 6.3 g/a, three weeks after application
In short: as §3

barnyardgrass [22] = test: Comparative Example 1: herbicidal effects in preemergence treatment on barnyardgrass under submerged conditions; details: applied to water surface on the day of seeding, three weeks after application
Description: Comparative Example 1 Test on the Herbicidal Effects in Preemergence Treatment on Barnyardgrass Under Submerged Conditions Alluvial soil was put in 1/30000-are styrol cups and admixed with water so that it was submerged at a depth of 4 cm. In each cup, seeds of barnyardgrass were sown, and on the same day as the seeding, emulsifiable concentrates containing compounds of the present invention formulated in accordance with Formulation Example 2 were applied to the water surfaces at predetermined doses after diluted with water. The cups were placed in a greenhouse at 25 to 30° C. to grow the plants. Three weeks after the application, the herbicidal effects against barnyardgrass were determined on the following evaluation scale. The symbol A in the table means barnyardgrass.

## CC(C)COC(=O)N(c1ccccc1CN1COCCC1=O)S(=O)(=O)C(F)(F)F [II-3]
Barnyardgrass [1]
  A: barnyardgrass, herbicidal effect (evaluation scale 0-5): 5 (mortality of 90% or above (nearly complete death))
bulrush
  B: bulrush, herbicidal effect (evaluation scale 0-5): 5 (mortality of 90% or above (nearly complete death))
ducksalad
  C: ducksalad, herbicidal effect (evaluation scale 0-5): 5 (mortality of 90% or above (nearly complete death))
Transplanted rice
  a: transplanted rice, effect on crop (evaluation scale 0-5): 0 (mortality of less than 5% (almost ineffective))
Italian ryegrass [2]
  H: Italian ryegrass, herbicidal effect (evaluation scale 0-5): 4 (mortality of at least 70% and less than 90%)
Barnyardgrass [3]
  A: barnyardgrass, herbicidal effect (evaluation scale 0-5): 5 (mortality of 90% or above (nearly complete death))
Common chickweed [4]
  N: common chickweed, herbicidal effect (evaluation scale 0-5): 3 (mortality of at least 40% and less than 70%)
Common lambsquater [5]
  L: common lambsquater, herbicidal effect (evaluation scale 0-5): 1 (mortality of at least 5% and less than 20%)
Common ragweed [6]
  J: common ragweed, herbicidal effect (evaluation scale 0-5): 3 (mortality of at least 40% and less than 70%)
Giant foxtail [7]
  E: giant foxtail, herbicidal effect (evaluation scale 0-5): 3 (mortality of at least 40% and less than 70%)
Large crabgrass [8]
  D: large crabgrass, herbicidal effect (evaluation scale 0-5): 5 (mortality of 90% or above (nearly complete death))
Posumbu knotweed [9]
  M: posumbu knotweed, herbicidal effect (evaluation scale 0-5): 1 (mortality of at least 5% and less than 20%)
Water foxtail [10]
  G: water foxtail, herbicidal effect (evaluation scale 0-5): 5 (mortality of 90% or above (nearly complete death))
Wild oat [11]
  F: wild oat, herbicidal effect (evaluation scale 0-5): 0 (mortality of less than 5% (almost ineffective))
Italian ryegrass [12]
  H: Italian ryegrass, herbicidal effect: 3 (mortality of at least 40% and less than 70%)
Barnyardgrass [13]
  A: barnyardgrass, herbicidal effect: 5 (mortality of 90% or above (nearly complete death))
beadstraw
  O: beadstraw, herbicidal effect: 3 (mortality of at least 40% and less than 70%)
Common chickweed [14]
  N: common chickweed, herbicidal effect: 3 (mortality of at least 40% and less than 70%)
Common lambsquater [15]
  L: common lambsquater, herbicidal effect: 4 (mortality of at least 70% and less than 90%)
Common ragweed [16]
  J: common ragweed, herbicidal effect: 2 (mortality of at least 20% and less than 40%)
Giant foxtail [17]
  E: giant foxtail, herbicidal effect: 5 (mortality of 90% or above (nearly complete death))
Large crabgrass [18]
  D: large crabgrass, herbicidal effect: 5 (mortality of 90% or above (nearly complete death))
Posumbu knotweed [19]
  M: posumbu knotweed, herbicidal effect: 0 (mortality of less than 5% (almost ineffective))
Redroot pigweed
  K: redroot pigweed, herbicidal effect: 0 (mortality of less than 5% (almost ineffective))
velvetleaf
  I: velvetleaf, herbicidal effect: 5 (mortality of 90% or above (nearly complete death))
Water foxtail [20]
  G: water foxtail, herbicidal effect: 5 (mortality of 90% or above (nearly complete death))
Wild oat [21]
  F: wild oat, herbicidal effect: 0 (mortality of less than 5% (almost ineffective))
Barnyardgrass [22]; dose 0.16 g/a
  herbicidal effect, A (barnyardgrass): 5 (mortality of 90% or above (nearly complete death))
Barnyardgrass [22]; dose 0.64 g/a
  herbicidal effect, A (barnyardgrass): 5 (mortality of 90% or above (nearly complete death))
Barnyardgrass [22]; dose 2.52 g/a
  herbicidal effect, A (barnyardgrass): 5 (mortality of 90% or above (nearly complete death))
